From ChEMBL document CHEMBL1125751, “On the optimization of hydrophobic and hydrophilic substituent interactions of 2,4-diamino-5-(substituted-benzyl)pyrimidines with dihydrofolate reductase” (J Med Chem, 1991) come the findings set out here.

The structures appear in SMILES notation.

For test [1], the target named is T1, Dihydrofolate reductase (Gallus gallus, UniProt P00378).
T1 sequence (P00378 whole entry): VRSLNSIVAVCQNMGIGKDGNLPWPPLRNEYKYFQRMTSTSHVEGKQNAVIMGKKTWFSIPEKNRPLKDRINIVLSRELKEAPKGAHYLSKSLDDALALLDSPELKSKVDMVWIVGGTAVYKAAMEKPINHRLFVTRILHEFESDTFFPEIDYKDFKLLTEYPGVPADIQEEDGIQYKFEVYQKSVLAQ
Kind of test: Compound was evaluated for inhibitory activity against chicken dihydrofolate reductase. To be noted: read-out: Log 1/Ki (converted).

Test [2] is described as follows: (§1) Selectivity index against Escherichia coli DHFR. It is filed as functional.
Test [3] can be described thus: (§2) Selectivity index against Lactobacillus casei DHFR. It is filed as functional.
In test [4] the target is T2, Dihydrofolate reductase (Homo sapiens) (UniProt P00374).
T2 sequence (whole entry): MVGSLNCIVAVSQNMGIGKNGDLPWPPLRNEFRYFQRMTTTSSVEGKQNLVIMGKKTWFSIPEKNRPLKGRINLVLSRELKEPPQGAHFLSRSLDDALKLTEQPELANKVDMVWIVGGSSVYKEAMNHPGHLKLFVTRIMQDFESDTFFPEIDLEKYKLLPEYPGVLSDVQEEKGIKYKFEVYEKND
The test is described as §1. The test is classed as functional.

The target in test [5] is T2, Dihydrofolate reductase (Homo sapiens). The test is described as §2. The test is classed as functional.

As to `CCc1cc(Cc2cnc(N)nc2N)cc(NC(C)=O)c1CO`, the Ki in test [1] was 708 µM. Besides, the results for the SI in test [2] and in test [3] were 4.87 and 3.36, respectively.
With `CCc1cc(Cc2cnc(N)nc2N)cc(CO)c1CO`, the SI in test [4] was 4.28; in test [5] it was 3.13.
